Results from PubChem BioAssay AID248 (DTP/NCI, 2004).
Where “and” joins values, the source holds several entries; their conditions need not be identical. Equal values may be shown once. Toxic doses and inconclusive results are not listed. Rule as the data show it: active = T/C of 150% or more; inactive = T/C below 125%.

System: L1210 leukemia ip in BDF1 mice, survival T/C
Test: NCI In Vivo Anticancer Drug Screen. Data for tumor model L1210 Leukemia (intraperitoneal) in B6D2F1 (BDF1) mice
Conditions: endpoint: mean survival time, higher = longer survival
Summary of the method: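 Antitumor effect is assessed in tumor-bearing animals. Survival in the compound arm is compared with a vehicle-dosed control arm and expressed as their quotient.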

[1] = dose: 100.0 mg/kg/injection, schedule: Q04DX003 (ip), vehicle: Klucel (hydroxypropylcellulose) (HPC)
[2] = dose: 200.0 mg/kg/injection, schedule: Q04DX003 (ip), vehicle: Klucel (hydroxypropylcellulose) (HPC)
[3] = dose: 50.0 mg/kg/injection, schedule: Q01DX009 (ip), vehicle: saline with Tween-80
[4] = dose: 100.0 mg/kg/injection, schedule: Q01DX009 (ip), vehicle: saline with Tween-80
[5] = dose: 100.0 mg/kg/injection, schedule: Q04DX003 (ip), vehicle: saline with Tween-80
[6] = dose: 200.0 mg/kg/injection, schedule: Q01DX009 (ip), vehicle: saline with Tween-80
[7] = dose: 200.0 mg/kg/injection, schedule: Q04DX003 (ip), vehicle: saline with Tween-80
[8] = dose: 100.0 mg/kg/injection, schedule: Q01DX001 (ip), vehicle: Klucel (hydroxypropylcellulose) (HPC)
[9] = dose: 100.0 mg/kg/injection, schedule: Q01DX009 (ip), vehicle: Klucel (hydroxypropylcellulose) (HPC)
[10] = dose: 200.0 mg/kg/injection, schedule: Q01DX001 (ip), vehicle: Klucel (hydroxypropylcellulose) (HPC)
[11] = dose: 200.0 mg/kg/injection, schedule: Q01DX009 (ip), vehicle: Klucel (hydroxypropylcellulose) (HPC)
[12] = dose: 400.0 mg/kg/injection, schedule: Q04DX003 (ip), vehicle: Klucel (hydroxypropylcellulose) (HPC)
[13] = dose: 100.0 mg/kg/injection, schedule: Q01DX001 (ip), vehicle: saline with Tween-80
[14] = dose: 200.0 mg/kg/injection, schedule: Q01DX001 (ip), vehicle: saline with Tween-80
[15] = dose: 400.0 mg/kg/injection, schedule: Q01DX001 (ip), vehicle: saline with Tween-80
[16] = dose: 100.0 mg/kg/injection, schedule: Q01DX001 (ip), vehicle: saline
[17] = dose: 200.0 mg/kg/injection, schedule: Q01DX001 (ip), vehicle: saline
[18] = dose: 400.0 mg/kg/injection, schedule: Q01DX001 (ip), vehicle: saline
[19] = dose: 100.0 mg/kg/injection, schedule: Q04DX003 (ip), vehicle: saline

Measured: T/C

O=C(O)/C=C/c1ccccn1
inactive: dose: 20.0 mg/kg/injection, schedule: Q04DX003 (ip), vehicle: Klucel (hydroxypropylcellulose) (HPC) 102 % of control | dose: 40.0 mg/kg/injection, schedule: Q04DX003 (ip), vehicle: Klucel (hydroxypropylcellulose) (HPC) 100 % of control | dose: 80.0 mg/kg/injection, schedule: Q04DX003 (ip), vehicle: Klucel (hydroxypropylcellulose) (HPC) 94 % of control | [1] 93 % of control | [2] 100 % of control

FC(F)(F)c1nc2nc(Br)c(Br)nc2[nH]1
inactive: [3] 108 % of control | [4] 89 % of control | [5] 109 % of control and 110 % of control and 111 % of control | [6] 98 % of control | [7] 102 % of control and 115 % of control

O=C(NC(=S)Nc1cccc(Cl)c1)c1cccc(Br)c1
inactive: [8] 86 % of control | [9] 98 % of control and 90 % of control | dose: 100.0 mg/kg/injection, schedule: Q04DX002 (ip), vehicle: Klucel (hydroxypropylcellulose) (HPC) 91 % of control | [1] 108 % of control | [10] 117 % of control | [11] 98 % of control and 90 % of control | dose: 200.0 mg/kg/injection, schedule: Q04DX002 (ip), vehicle: Klucel (hydroxypropylcellulose) (HPC) 93 % of control and 91 % of control | [2] 107 % of control | dose: 400.0 mg/kg/injection, schedule: Q01DX001 (ip), vehicle: Klucel (hydroxypropylcellulose) (HPC) 86 % of control | dose: 400.0 mg/kg/injection, schedule: Q01DX009 (ip), vehicle: Klucel (hydroxypropylcellulose) (HPC) 87 % of control and 91 % of control | dose: 400.0 mg/kg/injection, schedule: Q04DX002 (ip), vehicle: Klucel (hydroxypropylcellulose) (HPC) 93 % of control and 91 % of control | [12] 96 % of control

O=C(Cl)c1ccc([N+](=O)[O-])cc1
inactive: [5] 102 % of control | [7] 101 % of control

CC(C)c1ccc(/C(=N\NC(N)=S)C2CC2)cc1
inactive: dose: 1.0 mg/kg/injection, schedule: Q01DX Z (ip), vehicle: methylcellulose (MC) 93 % of control | dose: 2.0 mg/kg/injection, schedule: Q01DX Z (ip), vehicle: methylcellulose (MC) 91 % of control | dose: 5.0 mg/kg/injection, schedule: Q01DX Z (ip), vehicle: methylcellulose (MC) 94 % of control | dose: 10.0 mg/kg/injection, schedule: Q01DX Z (ip), vehicle: methylcellulose (MC) 102 % of control

CC(=O)Nc1ccc(CC(=O)O)cc1
inactive: [13] 96 % of control | [14] 93 % of control | [15] 100 % of control

O=c1c2ccccc2c2ccccc2n1C(c1ccccc1)c1ccccc1
inactive: [1] 98 % of control | [2] 88 % of control | [12] 88 % of control

O=c1cc([N+](=O)[O-])n(O)cc1[N+](=O)[O-]
inactive: [16] 102 % of control | [17] 108 % of control | [18] 102 % of control

CC(C)(C)C(=O)/C=C(\C=S(C)(C)=O)c1ccccc1
inactive: dose: 25.0 mg/kg/injection, schedule: Q04DX003 (ip), vehicle: saline 105 % of control | dose: 50.0 mg/kg/injection, schedule: Q04DX003 (ip), vehicle: saline 97 % of control | [19] 100 % of control

CC1(C)C=CC(=NO)C=C1
inactive: [9] 96 % of control | [11] 97 % of control

Clc1ccc(/C=C/c2ccccn2)c(Cl)c1
inactive: dose: 100.0 mg/kg/injection, schedule: Q04DX002 (ip), vehicle: gum acacia 109 % of control | dose: 200.0 mg/kg/injection, schedule: Q04DX002 (ip), vehicle: gum acacia 95 % of control | dose: 400.0 mg/kg/injection, schedule: Q04DX002 (ip), vehicle: gum acacia 87 % of control

O=C(Nc1ccc(C2=NCCN2)cc1)N1CCN(C(=O)Nc2ccc(C3=NCCN3)cc2)CC1
inactive: dose: 250.0 mg/kg/injection, schedule: Q01DX Z (ip), vehicle: water 87 % of control

CCC(C)C(NC(=O)C(CC(C)C)N(C)C)C(=O)N1CCC2Oc3ccc(cc3)/C=C\NC(=O)C(Cc3ccccc3)NC(=O)C21 (stereo not given)
inactive: [1] 96 % of control | [2] 108 % of control | [12] 94 % of control

Cc1cc([N+](=O)[O-])c([N+](=O)[O-])cc1Cl
inactive: [3] 115 % of control | [8] 105 % of control | [4] 115 % of control | [10] 115 % of control | [6] 109 % of control

CCOC(=O)N1CCN(CCO)CC1
inactive: [19] 102 % of control | dose: 200.0 mg/kg/injection, schedule: Q04DX003 (ip), vehicle: saline 94 % of control

Clc1cc(Cl)c(OCC#CI)c(Cl)c1Cl
inactive: dose: 6.25 mg/kg/injection, schedule: Q01DX009 (ip), vehicle: Klucel (hydroxypropylcellulose) (HPC) 100 % of control | dose: 12.5 mg/kg/injection, schedule: Q01DX009 (ip), vehicle: Klucel (hydroxypropylcellulose) (HPC) 97 % of control | dose: 25.0 mg/kg/injection, schedule: Q01DX009 (ip), vehicle: Klucel (hydroxypropylcellulose) (HPC) 92 % of control | dose: 50.0 mg/kg/injection, schedule: Q01DX009 (ip), vehicle: Klucel (hydroxypropylcellulose) (HPC) 96 % of control | dose: 75.0 mg/kg/injection, schedule: Q01DX009 (ip), vehicle: Klucel (hydroxypropylcellulose) (HPC) 98 % of control | dose: 115.0 mg/kg/injection, schedule: Q01DX009 (ip), vehicle: Klucel (hydroxypropylcellulose) (HPC) 94 % of control | dose: 170.0 mg/kg/injection, schedule: Q01DX009 (ip), vehicle: Klucel (hydroxypropylcellulose) (HPC) 93 % of control

CC(C)NC(=O)OC(C)C
inactive: [1] 96 % of control | [2] 104 % of control | [12] 98 % of control

Cc1ccc(N=C(N)N=C(N)N)cc1C
inactive: dose: 75.0 mg/kg/injection, schedule: Q01DX001 (ip), vehicle: carboxymethylcellulose (CMC) 97 % of control | dose: 150.0 mg/kg/injection, schedule: Q01DX001 (ip), vehicle: carboxymethylcellulose (CMC) 97 % of control | dose: 300.0 mg/kg/injection, schedule: Q01DX001 (ip), vehicle: carboxymethylcellulose (CMC) 91 % of control

COC(=O)c1cc(=O)nc2n1C1OC(CO)C(O)C1O2 (stereo not given)
inactive: [16] 95 % of control | [17] 101 % of control | [18] 93 % of control

CSc1ccccc1/C=C(/C(=O)O)c1ccccc1O
inactive: [13] 103 % of control | [14] 97 % of control | [15] 103 % of control

COC(=O)C1C(=O)OC(C)(C)C1c1ccccc1 (stereo not given)
inactive: dose: 44.0 mg/kg/injection, schedule: Q01DX001 (ip), vehicle: saline 95 % of control | dose: 66.0 mg/kg/injection, schedule: Q01DX001 (ip), vehicle: saline 101 % of control | [16] 100 % of control | dose: 150.0 mg/kg/injection, schedule: Q01DX001 (ip), vehicle: saline 103 % of control | [17] 91 % of control | [18] 91 % of control

c1ccc(C2=C(c3ccccc3)NC(c3ccccc3)N2)cc1
inactive: dose: 12.5 mg/kg/injection, schedule: Q04DX003 (ip), vehicle: Klucel (hydroxypropylcellulose) (HPC) 102 % of control | dose: 25.0 mg/kg/injection, schedule: Q04DX003 (ip), vehicle: Klucel (hydroxypropylcellulose) (HPC) 100 % of control | dose: 50.0 mg/kg/injection, schedule: Q04DX003 (ip), vehicle: Klucel (hydroxypropylcellulose) (HPC) 98 % of control | [1] 96 % of control
